Test results: US12012394B2, “Alpha-synuclein ligands” (Washington University, priority 2018, dated 2024)
Several values for one entry are separate records, joined by “and”; a condition that tells them apart may be missing. Equal values may be shown once.

Legend:
[1] = MicroPET studies in the brain of nonhuman primate; format: in vivo; settings: male adult cynomolgus macaca
Method: 9.93 mCi of [^18F]TZ61-44 was injected into a male adult cynomolgus macaca (9.25 Kg) 10.57 mCi of [^11C]TZ55-107 was injected into was injected into a male adult cynomolgus macaca (9.40 Kg) A simplified reference tissue model (SRTM) and spatially-constraint linear regression algorithm was used to generate R1 and DVR images (FIGS. 18A and 18B).
FIGS. 19A and 19B graphically depict the uptake of labeled TZ55-107 and TZ61-44 in the animals. [^18F]TZ61-44 had highest cortical uptake (SUV) of ˜3.48 at 4 min and the uptake ratio at 4 min versus 120 min reached ˜4.2 (FIG. 19A); [^11C]TZ55-107 had highest cortical uptake of ˜6.40 at 4 min, and the uptake ratio at 4 min versus 120 min reached ˜6.30 (FIG. 19B).

[2] = biological target: Banner PD-seeded α-synuclein fibrils (Homo sapiens (Human), UniProt P37840); assay: Homologous competition radioligand binding assay, PD-seeded fibrils
Method: The equilibrium dissociation constant (Kd) for a series of compounds was determined using direct radioactive competitive binding assays (homologous or heterologous) with either recombinant α-synuclein fibrils or brain tissue homogenates from AD cases.
Recombinant protein was produced in E. coli using protocols based on previously described methods for α-synuclein [Giasson, B. I., et al., “Mutant and wild type human alpha-synucleins assemble into elongated filaments with distinct morphologies in vitro,” 1999, J Biol. Chem., 274:7619-7622; Huang, C., et al., “A new method for purification of recombinant human alpha-synuclein in Escherichia coli,” 2005, Protein Expr Purif, 42:173-177; Yu, L., et al, “Synthesis and in vitro evaluation of á-synuclein ligands,” 2012, Bioorg. Med. Chem., 20:4625-4634] and tau [Li, W., et al., “Characterization of two VQIXXK motifs for tau fibrillization in vitro,” 2006, Biochemistry, 45:15692-15701]. BL21(DE3)RIL E. coli were transformed with a pRK172 bacterial expression plasmid containing the human α-synuclein coding sequence. […]. Overnight cultures were centrifuged at 3,900×g for 10 min at 25° C. and the bacterial pellets were resuspended by gentle vortexing in 20 ml osmotic shock buffer (30 mM Tris-HCl, 2 mM EDTA, 40% Sucrose, pH 7.2) and then incubated at room temperature for 10 min. The cell suspension was then centrifuged at 8,000×g for 10 min at 25° C. and the pellet was resuspended in 22.5 ml cold H2O before adding 9.4 μl 2 M MgCl2 to each tube. The suspension was incubated on ice for 3 min prior to centrifugation at 20,000×g for 15 min at 4° C. After the supernatant was transferred to a fresh tube, streptomycin was added to a final concentration of 10 mg/ml and centrifuged at 20,000×g for 15 min at 4° C. The supernatant from this step was collected and dithiothreitol (DTT) and Tris-HCl pH 8.0 were added to final concentrations of 1 mM and 20 mM respectively, before boiling for 10 min to precipitate heat-sensitive proteins, which were pelleted at 20,000×g for 15 min at 4° C. The supernatant was collected and filtered through a 0.45 μm surfactant-free cellulose acetate filter (Corning) before loading onto a 1 ml DEAE Sepharose column equilibrated in 20 mM Tris-HCl pH 8.0, 1 mM EDTA, and 1 mM DTT. The DEAE column was washed with 20 mM Tris-HCl pH 8.0, 1 mM EDTA, 1 mM DTT before eluting α-synuclein protein in 20 mM Tris-HCl pH 8.0 buffer with 1 mM EDTA, 1 mM DTT and 0.3 M NaCl. Purified α-synuclein protein was dialyzed overnight in 10 mM Tris-HCl pH 7.6, 50 mM NaCl, 1 mM DTT.
Purified recombinant α-synuclein monomer (2 mg/ml) was incubated in 20 mM Tris-HCl, pH 8.0, 100 mM NaCl for 72 h at 37 C with shaking at 1000 rpm in an Eppendorf Thermomixer. […] The concentration of α-synuclein monomer in the supernatant was determined in a BCA protein assay according to the manufacturer's instructions, using a bovine serum albumin (BSA) standard curve. The measured decrease in α-synuclein monomer concentration was used to determine the concentration of fibrils in the 72 h fibril reaction mixture. […]
These direct binding assays used a fixed concentration of either fibrils or PD/AD tissue and the radioligand (e.g., [^18F]28) and varying concentration ranges of corresponding homologous non-radiolabeled standard reference compound. […] Reactions were incubated at 37° C. for 1 h before quantifying bound radioligand. […]

Experimental Log P = format: physicochemical

highest cortical uptake (SUV) ([1]; brain cortex, at 4 min): ~3.48 SUV
uptake ratio at 4 min versus 120 min ([1]; brain cortex): ~4.2
Kd ([2]; 25 nM Banner PD-seeded fibrils): 5.4 nM and 9.7 nM and 12 nM and 25 nM and 26 nM
Kd ([2]; 75 nM Banner PD-seeded fibrils): 30 nM
logP (Experimental Log P): 1.97 ± 0.4
SMILES: COc1ccc(Nc2ccc3cc(OCCF)ccc3n2)cn1 [TZ61-44]
blood brain barrier penetration [1]: able to penetrate the blood brain barrier
